The structures appear in SMILES notation.

Data on 29 compounds can be found in patent US10730866B2, “Indole derivatives and use thereof” (Purdue Pharma L.P., priority 2014, dated 2020).

This assay deals with human Nav1.7 (Homo sapiens (Human), UniProt Q15858). The experiment in a line: FLIPR or FLIPR TETRA sodium dye assay for sodium channel blocking activity. The format is cell-based. Conditions: recombinant HEK293 cells expressing human Nav1.7. As for the experimental part: In vitro assays were performed in a recombinant cell line expressing cDNA encoding the alpha subunit (Nav1.7, SCN9a, PN1, NE) of human Nav1.7 (Accession No. NM_002977). The cell line was provided by investigators at Yale University (Cummins et al, J. Neurosci. 18(23): 9607-9619 (1998)). For dominant selection of the Nav1.7-expressing clones, the expression plasmid co-expressed the neomycin resistance gene. The cell line was constructed in the human embryonic kidney cell line, HEK293, under the influence of the CMV […] promoter, and stable clones were selected using limiting dilution cloning and antibiotic selection using the neomycin analogue, G418. Recombinant beta and gamma subunits were not introduced into this cell line. Additional cell lines expressing recombinant Nav1.7 cloned from other species can also be used, alone or in combination with various beta subunits, gamma subunits or chaperones.
Sequence of human Nav1.7 (Q15858 other isoform, or with tags, fused parts or gaps): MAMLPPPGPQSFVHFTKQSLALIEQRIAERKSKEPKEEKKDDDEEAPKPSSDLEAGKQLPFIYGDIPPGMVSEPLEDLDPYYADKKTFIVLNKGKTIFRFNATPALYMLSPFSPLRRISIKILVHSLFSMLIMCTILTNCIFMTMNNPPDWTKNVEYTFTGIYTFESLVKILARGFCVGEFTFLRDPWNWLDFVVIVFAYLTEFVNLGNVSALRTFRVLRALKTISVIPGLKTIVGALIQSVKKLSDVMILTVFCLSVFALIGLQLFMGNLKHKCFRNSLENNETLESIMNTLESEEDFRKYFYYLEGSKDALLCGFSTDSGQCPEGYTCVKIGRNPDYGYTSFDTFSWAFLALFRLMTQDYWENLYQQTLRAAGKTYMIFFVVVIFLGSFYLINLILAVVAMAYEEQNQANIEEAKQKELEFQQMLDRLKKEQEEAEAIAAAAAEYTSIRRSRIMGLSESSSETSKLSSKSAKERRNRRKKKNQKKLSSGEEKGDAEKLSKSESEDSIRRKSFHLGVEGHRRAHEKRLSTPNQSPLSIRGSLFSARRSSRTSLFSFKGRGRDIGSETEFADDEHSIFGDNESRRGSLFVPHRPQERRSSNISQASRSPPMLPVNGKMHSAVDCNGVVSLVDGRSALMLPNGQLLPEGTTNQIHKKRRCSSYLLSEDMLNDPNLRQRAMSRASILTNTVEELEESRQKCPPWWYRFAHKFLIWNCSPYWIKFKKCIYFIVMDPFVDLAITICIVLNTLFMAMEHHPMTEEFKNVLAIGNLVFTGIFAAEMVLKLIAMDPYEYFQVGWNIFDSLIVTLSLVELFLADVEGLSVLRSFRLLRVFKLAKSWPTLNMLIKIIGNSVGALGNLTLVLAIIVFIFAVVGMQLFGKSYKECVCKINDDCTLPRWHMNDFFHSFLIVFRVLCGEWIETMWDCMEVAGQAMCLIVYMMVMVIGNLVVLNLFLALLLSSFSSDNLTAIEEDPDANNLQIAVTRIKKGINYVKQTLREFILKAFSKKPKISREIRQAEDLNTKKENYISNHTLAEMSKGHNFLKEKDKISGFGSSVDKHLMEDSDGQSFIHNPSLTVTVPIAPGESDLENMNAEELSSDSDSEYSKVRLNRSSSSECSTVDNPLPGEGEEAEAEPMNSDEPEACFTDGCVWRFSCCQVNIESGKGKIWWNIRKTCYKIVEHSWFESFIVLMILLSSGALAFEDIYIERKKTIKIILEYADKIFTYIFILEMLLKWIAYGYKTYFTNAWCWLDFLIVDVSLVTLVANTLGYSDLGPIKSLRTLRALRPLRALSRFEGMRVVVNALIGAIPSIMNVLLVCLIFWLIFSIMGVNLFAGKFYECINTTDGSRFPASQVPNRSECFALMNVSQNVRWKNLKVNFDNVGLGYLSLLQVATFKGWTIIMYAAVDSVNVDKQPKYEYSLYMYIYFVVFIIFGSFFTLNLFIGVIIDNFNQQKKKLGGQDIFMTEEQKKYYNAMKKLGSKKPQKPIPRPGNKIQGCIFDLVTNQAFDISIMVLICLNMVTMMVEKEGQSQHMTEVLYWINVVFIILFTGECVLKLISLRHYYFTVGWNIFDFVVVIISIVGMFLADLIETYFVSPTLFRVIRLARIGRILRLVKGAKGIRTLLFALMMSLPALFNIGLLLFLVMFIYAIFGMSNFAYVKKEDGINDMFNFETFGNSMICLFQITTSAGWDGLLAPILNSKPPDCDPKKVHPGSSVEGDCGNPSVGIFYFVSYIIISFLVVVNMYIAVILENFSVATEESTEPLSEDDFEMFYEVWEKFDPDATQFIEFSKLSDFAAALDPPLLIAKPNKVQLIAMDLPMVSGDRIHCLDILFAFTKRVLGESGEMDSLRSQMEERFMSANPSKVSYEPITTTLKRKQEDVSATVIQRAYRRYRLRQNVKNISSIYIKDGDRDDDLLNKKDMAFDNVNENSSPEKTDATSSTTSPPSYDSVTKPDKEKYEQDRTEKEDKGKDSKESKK
Unless otherwise noted, cell culture reagents were purchased from Mediatech of Herndon, Va. The recombinant Nav1.7/HEK293 cells were routinely cultured in growth medium consisting of Dulbecco's […] essential medium containing 10% fetal bovine serum (FBS, Hyclone, Thermo Fisher Scientific, Logan, Utah), 100 U/mL penicillin, 100 μg/mL streptomycin, 2-4 mM L-glutamine, and […] G418. For natural, non-recombinant cell lines, the selective antibiotic was omitted, and additional media formulations can be applied as needed.
The final buffer consisted of 20 mM Hepes, pH 7.3, 1.261 mM CaCl2, 0.493 mM MgCl2, 0.407 mM Mg(SO)4, 5.33 mM KCl, 0.441 mM KH2PO4, 137 mM NaCl, 0.336 mM Na2HPO4 and […] D-glucose (Hanks et al., Proc. Soc. Exp. Biol. Med. 71:196 (1949)), and the simple formulation was typically the basic buffer throughout the assay (i.e., all wash and addition steps).
The fluorescence indicator used in the primary fluorescence assay was the cell permeant version of CoroNa™ Green (Invitrogen, Molecular Probes, Eugene, Oreg.), a dye that emits light in the fluorescence range (Harootunian et al., J. Biol. Chem. 264(32):19458-19467 (1989)). The intensity of this emission, but not the wavelength range, is increased when the dye is exposed to Na^+ ions, which it can bind with partial selectivity. Cells expressing Nav1.7 or other sodium channels were loaded with the CoroNa™ Green dye immediately in advance of the fluorescence assay, and then, after agonist stimulation, the mobilization of Na^+ ions was detected as the Na^+ ions flowed from the extracellular fluid into the cytoplasm through the activated sodium channel pores. The dye was stored in the dark as a lyophilized powder, and then an aliquot was dissolved immediately before the cell loading procedure, according to the instructions of the manufacturer, to a stock concentration of 10 mM in DMSO. It was then diluted in the assay buffer to a 4× concentrated working solution, so that the final concentration of dye in the cell loading buffer was 5 μM.
In the fluorescence assays, two agonists were used in combination, namely 1) veratridine; and 2) the venom from the yellow scorpion, Leiurus quinquestriatus hebraeus. Veratridine is an alkaloid small molecule that facilitates the capture of channel openings by inhibiting inactivation, and the scorpion venom is a natural preparation that includes peptide toxins selective for different subsets of voltage-gated sodium channels. These scorpion toxins inhibit the fast inactivation of their cognate target channels. Stock solutions of the agonists were prepared to 40 mM in DMSO (veratridine) and 1 mg/mL in dH2O (scorpion venom), and then diluted to make a 4× or 2× stock (depending on the particular assay) in assay buffer, the final concentration being 100 μM (veratridine) and 10 μg/mL (scorpion venom). Both of the agonists were purchased from Sigma Aldrich, St. Louis, Mo.
Test compounds were dissolved in DMSO to yield 10 mM stock solutions. […]
In the case of `OC[C@H](O)c1ccnc(-c2ccc3ncn(-c4ccc(C(F)(F)F)cc4)c3c2)n1` [Compound 50, (R)-1-(2-(1-(4-(trifluoromethyl)phenyl)-1H-benzo[d]imidazol-6-yl)pyrimidin-4-yl)ethane-1,2-diol], the IC50 was more than 20 µM.

With `NC(=O)c1cc([C@H](O)CO)cc(-c2ccc3c(ccn3Cc3ccc(C(F)(F)F)cc3)c2)n1` [Compound 121, (S)-4-(1,2-dihydroxyethyl)-6-(1-(4-(trifluoromethyl)benzyl)-1H-indol-5-yl)picolinamide], the IC50 is 2.37 ± 0.364 µM. Take `CC(C)Cn1ccc2cc(-c3cccc(C(N)=O)n3)ccc21` [Compound 67, 6-(1-isobutyl-1H-indol-5-yl)picolinamide]: the IC50 is 0.308 ± 0.078 µM. To `C[C@H](Nc1cc(C(=O)Nc2ccc(C(F)(F)F)cc2)nc(-c2ccc3[nH]ccc3c2)n1)C(N)=O` [Compound 80, (S)-6-((1-amino-1-oxopropan-2-yl)amino)-2-(1H-indol-5-yl)-N-(4-(trifluoromethyl)phenyl)pyrimidine-4-carboxamide] belongs more than 20 µM. For the compound `CCN(CC)CCn1cc(-c2ccc(F)cc2)c2ccc(-c3cccc(C(N)=O)n3)cc21` [Compound 131, 6-(1-(2-(diethylamino)ethyl)-3-(4-fluorophenyl)-1H-indol-6-yl)picolinamide], the IC50 was more than 20 µM. On to `NC(=O)c1cccc(-c2ccc3c(ccn3S(=O)(=O)C3CCCCC3)c2)n1` [Compound 59, 6-(1-(cyclohexylsulfonyl)-1H-indol-5-yl)picolinamide], for which the half-inhibitory concentration (IC50) is 0.927 ± 0.05 µM.

For `O=C(c1cccc(-c2ccc3[nH]ccc3c2)n1)N(c1ccc(C(F)(F)F)cc1)c1ccc(C(F)(F)F)cc1` [Compound 33, 6-(1H-indol-5-yl)-N,N-bis(4-(trifluoromethyl)phenyl)picolinamide], the IC50 was more than 20 µM.

For the compound `O=C(Nc1ccc(C(F)(F)F)cc1)c1cccc(-c2ccc3[nH]ccc3c2)n1` [Compound 32, 6-(1H-indol-5-yl)-N-(4-(trifluoromethyl)phenyl)picolinamide], the IC50 stood at 0.233 ± 0.035 µM. To `O=C(Nc1ccc(C(F)(F)F)cc1)c1cccc(-c2ccc3[nH]ncc3c2)n1` [Compound 77, 6-(1H-indazol-5-yl)-N-(4-(trifluoromethyl)phenyl)picolinamide] belongs 2.7 ± 0.524 µM; to `NC(=O)[C@H](O)[C@@H](O)c1cccc(-c2ccc3c(ccn3CC3CCCCC3)c2)n1` [Compound 152, (2R,3S)-3-(6-(1-(cyclohexylmethyl)-1H-indol-5-yl)pyridin-2-yl)-2,3-dihydroxypropanamide], 0.402 ± 0.032 µM; to `CC(C)Cn1ccc2cc(-c3cc(C(N)=O)nc([C@H](O)CO)c3)ccc21` [Compound 126, (S)-6-(1,2-dihydroxyethyl)-4-(1-isobutyl-1H-indol-5-yl)picolinamide], 5.91 ± 0.536 µM.

`OC[C@@H](O)c1cccc(-c2ccc3c(ccn3Cc3ccc(C(F)(F)F)cc3)c2)n1` [Compound 109, (S)-1-(6-(1-(4-(trifluoromethyl)benzyl)-1H-indol-5-yl)pyridin-2-yl)ethane-1,2-diol]: the IC50 worked out at 0.177 ± 0.005 µM.

For the compound `CC(C)Cn1ccc2cc(-c3cc([C@H](O)CO)cc(C(N)=O)n3)ccc21` [Compound 124, (S)-4-(1,2-dihydroxyethyl)-6-(1-isobutyl-1H-indol-5-yl)picolinamide], the IC50 was found to be 4.92 ± 0.7 µM. As for `CC(C)Cn1ccc2cc(-c3nc(N[C@@H](C)C(N)=O)cc(C(N)=O)n3)ccc21` [Compound 47, (S)-6-((1-amino-1-oxopropan-2-yl)amino)-2-(1-isobutyl-1H-indol-5-yl)pyrimidine-4-carboxamide], the IC50 turned out to be 4.19 ± 0.862 µM. For `Cn1cc(-c2cccc(C(F)(F)F)c2)c2cc(-c3cccc(C(N)=O)n3)ccc21` [Compound 129, 6-(1-methyl-3-(3-(trifluoromethyl)phenyl)-1H-indol-5-yl)picolinamide], the IC50 lay within 10 to 20 µM.

With `OC[C@@H](O)c1cccc(-c2ccc3nn(Cc4ccc(C(F)(F)F)cc4)cc3c2)n1` [Compound 108, (S)-1-(6-(2-(4-(trifluoromethyl)benzyl)-2H-indazol-5-yl)pyridin-2-yl)ethane-1,2-diol], the concentration for half-maximal inhibition (IC50) was 4.68 ± 0.412 µM. To `Cc1ccc(Cn2ccc3cc(-c4cccc(C(N)=O)n4)ccc32)cc1` [Compound 62, 6-(1-(4-methylbenzyl)-1H-indol-5-yl)picolinamide] belongs more than 20 µM; to `CC(C)Cn1ccc2cc(-c3cc([C@@H](O)CO)cc(C(N)=O)n3)ccc21` [Compound 125, (R)-4-(1,2-dihydroxyethyl)-6-(1-isobutyl-1H-indol-5-yl)picolinamide], more than 20 µM.

For `O=C(Nc1nnn[nH]1)c1cccc(-c2ccc3[nH]ccc3c2)n1` [Compound 87, 6-(1H-indol-5-yl)-N-(1H-tetrazol-5-yl)picolinamide], the IC50 was more than 20 µM. The same measure for `C[C@H](Nc1cc(C(=O)Nc2ccc(C(F)(F)F)cc2)nc(-c2ccc3occc3c2)n1)C(N)=O` [Compound 79, (S)-6-((1-amino-1-oxopropan-2-yl)amino)-2-(benzofuran-5-yl)-N-(4-(trifluoromethyl)phenyl)pyrimidine-4-carboxamide]: more than 20 µM; for `O=C(Nc1ccc(C(F)(F)F)cc1)c1cccc(-c2ccc3[nH]cc(C(=O)O)c3c2)n1` [Compound 139, 5-(6-((4-(trifluoromethyl)phenyl)carbamoyl)pyridin-2-yl)-1H-indole-3-carboxylic acid]: more than 20 µM; for `NC(=O)[C@H](O)[C@@H](O)c1cccc(-c2ccc3c(ccn3Cc3ccc(C(F)(F)F)cc3)c2)n1` [Compound 151, (2R,3S)-2,3-dihydroxy-3-(6-(1-(4-(trifluoromethyl)benzyl)-1H-indol-5-yl)pyridin-2-yl)propanamide]: 0.773 ± 0.09 µM. The same measure for `C[C@H](NC(=O)c1cn(Cc2ccc(C(F)(F)F)cc2)c2ccc(-c3cccc(C(N)=O)n3)cc12)C(N)=O` [Compound 143, (S)-N-(1-amino-1-oxopropan-2-yl)-5-(6-carbamoylpyridin-2-yl)-1-(4-(trifluoromethyl)benzyl)-1H-indole-3-carboxamide]: more than 20 µM; for `Cc1noc(C)c1Cn1ccc2cc(-c3cccc(C(N)=O)n3)ccc21` [Compound 66, 6-(1-((3,5-dimethylisoxazol-4-yl)methyl)-1H-indol-5-yl)picolinamide]: 5.55 ± 0.376 µM. Consider `C[C@H](Nc1cc(C(N)=O)nc(-c2ccc3[nH]ccc3c2)n1)C(N)=O` [Compound 35, (S)-6-((1-amino-1-oxopropan-2-yl)amino)-2-(1H-indol-5-yl)pyrimidine-4-carboxamide], for which the IC50 is more than 20 µM.

In the case of `NC(=O)c1cccc(-c2ccc3c(ccn3Cc3ccc(F)cc3)c2)n1` [Compound 61, 6-(1-(4-fluorobenzyl)-1H-indol-5-yl)picolinamide], the 50% inhibitory concentration (IC50) was 0.801 ± 0.052 µM.

Take `O=C(NCC1CCCCC1)c1cccc(-c2ccc3[nH]ccc3c2)n1` [Compound 83, N-(cyclohexylmethyl)-6-(1H-indol-5-yl)picolinamide]: the IC50 worked out at 0.18 ± 0.031 µM. To `NC(=O)c1cc(-c2ccc3c(ccn3Cc3ccc(C(F)(F)F)cc3)c2)cc([C@@H](O)CO)n1` [Compound 122, (R)-6-(1,2-dihydroxyethyl)-4-(1-(4-(trifluoromethyl)benzyl)-1H-indol-5-yl)picolinamide] belongs 1.74 ± 0.214 µM; to `NC(=O)c1cccc(-c2ccc3[nH]ccc3c2)n1` [Compound 29, 6-(1H-indol-5-yl)picolinamide], more than 20 µM.

Usually IC50 stands for the midpoint of a concentration-inhibition curve.
